SMILES strings stand for the structures.

Assay [1] concerns the target T1, PPARγ (Homo sapiens, UniProt P37231).
T1 construct: gene PPARG
T1 sequence (P37231 231-505 limits assumed): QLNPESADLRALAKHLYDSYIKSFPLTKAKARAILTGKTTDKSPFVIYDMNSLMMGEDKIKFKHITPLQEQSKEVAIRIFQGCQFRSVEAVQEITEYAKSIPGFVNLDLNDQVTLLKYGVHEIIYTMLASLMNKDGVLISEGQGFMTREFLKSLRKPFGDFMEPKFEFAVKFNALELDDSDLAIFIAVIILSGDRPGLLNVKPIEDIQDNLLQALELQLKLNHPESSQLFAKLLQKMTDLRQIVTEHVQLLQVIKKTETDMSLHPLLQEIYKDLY
Kind of assay: competitive TR-FRET binding assay (terbium donor, Fluormone Green tracer displacement).

The target of assay [2] is T2, PPARγ (Mus musculus, UniProt P37238).
T2 construct: gene Pparg
T2 sequence (P37238 193-505): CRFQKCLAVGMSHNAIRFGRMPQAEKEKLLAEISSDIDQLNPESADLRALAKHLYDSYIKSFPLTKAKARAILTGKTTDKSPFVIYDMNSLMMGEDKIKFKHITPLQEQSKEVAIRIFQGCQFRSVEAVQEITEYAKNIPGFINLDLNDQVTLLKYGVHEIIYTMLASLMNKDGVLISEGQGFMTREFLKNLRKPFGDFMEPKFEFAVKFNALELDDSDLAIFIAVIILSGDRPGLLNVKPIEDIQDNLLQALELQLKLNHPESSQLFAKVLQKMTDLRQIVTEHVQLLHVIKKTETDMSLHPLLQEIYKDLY
Description: GAL4-UAS luciferase transactivation assay in HEK293T/[…] cells. The class given is cell-based.

On to `CCCCC(CC)COC(=O)CC(C(=O)OCC(CC)CCCC)S(=O)(=O)O` (centres unmarked) [DOSS], for which, at PPARγ [1], the Kd – broadly, a measure of binding affinity in units of concentration – was 1.38 µM. The “GAL4-UAS luciferase transactivation assay in HEK293T/17 cells” value on PPARγ [2] is reported as “DOSS alone elicited dose-dependent increases in PPARγ-driven luciferase expression in the low ppm range”.

The values above are taken from PMC4710608 (Environmental Health Perspectives, 2015).
